The values that follow come from US12522601B2, “1,3,4-oxadiazole derivative compounds as histone deacetylase 6 inhibitor, and the pharmaceutical composition comprising the same” (CHONG KUN DANG PHARMACEUTICAL CORP., priority 2020, dated 2026).

In one assay the target is T1, human recombinant HDAC1 (Homo sapiens, UniProt Q13547).
T1 construct: purchased Enzo Life Sciences, Inc. BML-SE456
Nature of the assay: In vitro HDAC enzyme activity inhibition assay, HDAC1 (HDAC Fluorimetric Drug Discovery Kit). In kind it is biochemical. The settings on record: human recombinant HDAC1, Fluor de Lys-SIRT1 substrate 10 μM, 30° C. for 60 minutes. Here is the method: (§1) In order to confirm the selectivity of the compounds represented by Chemical Formula I of the present invention to HDAC6 through HDAC1 and HDAC6 enzyme activity inhibition experiments, a comparison experiment was performed using the material that has already been developed as a control group.
(§2) HDAC enzyme activity was measured using the HDAC Fluorimetric Drug Discovery Kit (Enzo Life Sciences, Inc., BML-AK511, 516). For the HDAC1 enzyme activity test, human recombinant HDAC1 (BML-SE456) was used as an enzyme source and Fluor de Lys®-SIRT1 (BNL-KI177) was used as a substrate. After dispensing 5-fold diluted compounds into a 96-well plate, 0.3 μg of enzyme and 10 μM substrate were added to each well of the plate and allowed to react at 30° C. for 60 minutes. Next, Fluor de Lys® Developer II (BML-KI176) was added and reacted for 30 minutes to complete the reaction, and then the fluorescence values (Ex 360, Em 460) were measured using a multi-plate reader (Flexstation 3, Molecular Device). The HDAC6 enzymes were tested using human recombinant HDAC6 (382180) from Calbiochem Inc., according to the same protocol as the HDAC1 enzyme activity test method. With respect to the final result values, respective IC50 values were calculated using GraphPad Prism 4.0 program, and results thereof were summarized in Table 5 below.

Another assay addresses T2, human recombinant HDAC6 (Homo sapiens, UniProt Q9UBN7).
T2 construct: purchased Calbiochem Inc. 382180
T2 sequence (Q9UBN7 1-1215): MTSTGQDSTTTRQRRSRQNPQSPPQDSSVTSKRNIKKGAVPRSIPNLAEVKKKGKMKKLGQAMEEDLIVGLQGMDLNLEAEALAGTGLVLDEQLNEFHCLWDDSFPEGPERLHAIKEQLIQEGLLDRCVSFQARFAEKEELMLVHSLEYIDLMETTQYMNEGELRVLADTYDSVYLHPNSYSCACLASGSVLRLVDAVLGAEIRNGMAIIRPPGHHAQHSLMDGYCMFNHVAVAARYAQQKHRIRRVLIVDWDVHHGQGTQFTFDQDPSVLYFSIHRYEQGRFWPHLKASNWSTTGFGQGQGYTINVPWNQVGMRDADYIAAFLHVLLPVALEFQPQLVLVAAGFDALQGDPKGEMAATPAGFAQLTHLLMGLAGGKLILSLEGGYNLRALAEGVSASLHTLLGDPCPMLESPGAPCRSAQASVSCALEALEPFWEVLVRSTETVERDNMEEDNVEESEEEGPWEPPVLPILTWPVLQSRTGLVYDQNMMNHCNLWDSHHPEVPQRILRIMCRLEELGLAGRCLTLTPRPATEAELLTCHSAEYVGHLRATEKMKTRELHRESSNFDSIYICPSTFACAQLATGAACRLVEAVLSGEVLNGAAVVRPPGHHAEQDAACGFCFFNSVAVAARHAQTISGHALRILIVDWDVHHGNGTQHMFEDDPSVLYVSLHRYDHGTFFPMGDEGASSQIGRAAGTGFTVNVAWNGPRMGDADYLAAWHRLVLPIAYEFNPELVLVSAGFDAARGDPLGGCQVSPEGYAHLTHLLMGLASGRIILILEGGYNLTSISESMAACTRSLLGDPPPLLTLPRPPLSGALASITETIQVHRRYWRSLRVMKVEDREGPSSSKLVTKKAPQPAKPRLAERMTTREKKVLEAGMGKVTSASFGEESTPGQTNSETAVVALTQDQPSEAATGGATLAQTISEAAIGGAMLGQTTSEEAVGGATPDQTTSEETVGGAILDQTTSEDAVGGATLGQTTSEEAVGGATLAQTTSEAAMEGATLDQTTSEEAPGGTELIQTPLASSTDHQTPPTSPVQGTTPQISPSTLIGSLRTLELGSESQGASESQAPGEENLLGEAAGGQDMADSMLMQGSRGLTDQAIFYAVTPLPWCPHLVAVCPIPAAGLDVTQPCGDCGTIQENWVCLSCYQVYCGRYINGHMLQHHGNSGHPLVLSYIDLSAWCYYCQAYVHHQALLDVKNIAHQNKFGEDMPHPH
As to the kind of experiment: In vitro HDAC enzyme activity inhibition assay, HDAC6 (HDAC Fluorimetric Drug Discovery Kit). In kind it is biochemical. The settings on record: for HDAC6 Selectivity (fold): HDAC6 versus HDAC1; for IC50: human recombinant HDAC6, same protocol as the HDAC1 test. How it is done: as §1, §2

Each structure is given as a SMILES string.

T1 sequence (Q13547 whole entry): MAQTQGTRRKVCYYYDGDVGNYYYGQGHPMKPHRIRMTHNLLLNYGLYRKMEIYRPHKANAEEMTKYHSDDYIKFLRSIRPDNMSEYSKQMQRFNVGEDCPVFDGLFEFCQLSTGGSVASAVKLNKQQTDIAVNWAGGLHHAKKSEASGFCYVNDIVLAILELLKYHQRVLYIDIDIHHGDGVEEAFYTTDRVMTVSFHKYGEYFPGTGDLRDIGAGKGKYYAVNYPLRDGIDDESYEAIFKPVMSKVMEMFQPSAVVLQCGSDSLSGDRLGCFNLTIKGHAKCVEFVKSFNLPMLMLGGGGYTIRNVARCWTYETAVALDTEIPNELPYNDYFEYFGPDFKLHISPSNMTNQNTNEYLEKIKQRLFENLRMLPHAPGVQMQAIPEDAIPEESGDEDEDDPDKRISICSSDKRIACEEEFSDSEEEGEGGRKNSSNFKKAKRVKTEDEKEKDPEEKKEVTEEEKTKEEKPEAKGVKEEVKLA

For `Fc1ccc(NCc2cn3ccc(-c4nnc(C(F)F)o4)cc3n2)cc1Cl` [Compound 3672, 3-chloro-N-((7-(5-(difluoromethyl)-1,3,4-oxadiazol-2-yl)imidazo[1,2-a]pyridin-2-yl)methyl)-4-fluoroaniline], the IC50 was > 50000 nM on human recombinant HDAC1 and 108 nM on human recombinant HDAC6. The “HDAC6 Selectivity (fold)” value on human recombinant HDAC6 worked out at 464 fold.

For the molecule `O=C(C1CCN(C2CCOCC2)CC1)N(Cc1cn2ccc(-c3nnc(C(F)F)o3)cc2n1)c1ccccc1` [Compound 4120, N-((7-(5-(difluoromethyl)-1,3,4-oxadiazol-2-yl)imidazo[1,2-a]pyridin-2-yl)methyl)-N-phenyl-1-(tetrahydro-2H-pyran-4-yl)piperidine-4-carboxamide], the IC50 on human recombinant HDAC1 was > 50000 nM. In addition, at human recombinant HDAC6, the “HDAC6 Selectivity (fold)” value is given as 98 fold and the IC50 came out at 509 nM.

On to `O=C(N1CCN(c2ncccn2)CC1)N(Cc1cn2ccc(-c3nnc(C(F)F)o3)cc2n1)c1cccc(F)c1` [Compound 4101, N-((7-(5-(difluoromethyl)-1,3,4-oxadiazol-2-yl)imidazo[1,2-a]pyridin-2-yl)methyl)-N-(3-fluorophenyl)-4-(pyrimidin-2-yl)piperazine-1-carboxamide], for which the results for the IC50 on human recombinant HDAC1 and on human recombinant HDAC6 were > 50000 nM and 108 nM, respectively. The “HDAC6 Selectivity (fold)” value on human recombinant HDAC6 is reported as 464 fold.

For `O=C(C1CN(c2ncccn2)C1)N(Cc1cn2ccc(-c3nnc(C(F)F)o3)cc2n1)c1ccccc1` [Compound 4177, N-((7-(5-(difluoromethyl)-1,3,4-oxadiazol-2-yl)imidazo[1,2-a]pyridin-2-yl)methyl)-N-phenyl-1-(pyrimidin-2-yl) azetidine-3-carboxamide], the IC50 on human recombinant HDAC1 was > 50000 nM. For the same molecule, at human recombinant HDAC6, the “HDAC6 Selectivity (fold)” value is reported as 205 fold and the concentration for half-maximal inhibition (IC50) was 244 nM.

As to `O=C(C1CCN(C2COC2)CC1)N(Cc1cn2ccc(-c3nnc(C(F)F)o3)cc2n1)c1ccccc1` [Compound 3783, N-((7-(5-(difluoromethyl)-1,3,4-oxadiazol-2-yl)imidazo[1,2-a]pyridin-2-yl)methyl)-1-(oxetan-3-yl)-N-phenylpiperidine-4-carboxamide], the IC50 at human recombinant HDAC1 was > 50000 nM. Further, at human recombinant HDAC6, the “HDAC6 Selectivity (fold)” value was determined as 696 fold and the IC50 came out at 71.8 nM.

`CCN1CC(C(=O)N(Cc2cn3ccc(-c4nnc(C(F)F)o4)cc3n2)c2cccc(F)c2)C1` [Compound 4189, N-((7-(5-(difluoromethyl)-1,3,4-oxadiazol-2-yl)imidazo[1,2-a]pyridin-2-yl)methyl)-1-ethyl-N-(3-fluorophenyl) azetidine-3-carboxamide]: the IC50 on human recombinant HDAC1 was > 50000 nM. At human recombinant HDAC6, the “HDAC6 Selectivity (fold)” value was found to be 315 fold and the IC50 stood at 159 nM.

Take `CN(C)C(=O)N1CCC(C(=O)N(Cc2cn3ccc(-c4nnc(C(F)F)o4)cc3n2)c2cccc(F)c2)CC1` [Compound 4155, N4-((7-(5-(difluoromethyl)-1,3,4-oxadiazol-2-yl)imidazo[1,2-a]pyridin-2-yl)methyl)-N4-(3-fluorophenyl)-N1,N1-dimethylpiperidine-1,4-dicarboxamide]: the half-maximal inhibitory concentration (IC50) on human recombinant HDAC1 is > 50000 nM. At human recombinant HDAC6, the “HDAC6 Selectivity (fold)” value was determined as 142 fold and the IC50 is 352 nM.

Regarding `O=C(N1CCN(c2ccccn2)CC1)N(Cc1cn2ccc(-c3nnc(C(F)F)o3)cc2n1)c1cccc(F)c1` [Compound 4100, N-((7-(5-(difluoromethyl)-1,3,4-oxadiazol-2-yl)imidazo[1,2-a]pyridin-2-yl)methyl)-N-(3-fluorophenyl)-4-(pyridin-2-yl)piperazine-1-carboxamide], the IC50 is > 50000 nM on human recombinant HDAC1 and 468 nM on human recombinant HDAC6. Moreover, the “HDAC6 Selectivity (fold)” value at human recombinant HDAC6 is 107 fold.

As to `CC(C)N1CCN(C(=O)N(Cc2cn3ccc(-c4nnc(C(F)F)o4)cc3n2)c2cccc(F)c2)CC1` [Compound 4085, N-((7-(5-(difluoromethyl)-1,3,4-oxadiazol-2-yl)imidazo[1,2-a]pyridin-2-yl)methyl)-N-(3-fluorophenyl)-4-isopropylpiperazine-1-carboxamide], the IC50 at human recombinant HDAC1 is > 50000 nM. Further, at human recombinant HDAC6, the “HDAC6 Selectivity (fold)” value was determined as 233 fold and the IC50 is 214 nM.

Regarding `COC(=O)N1CCC(C(=O)N(Cc2cn3ccc(-c4nnc(C(F)F)o4)cc3n2)c2cccc(F)c2)CC1` [Compound 4154, methyl 4-(((7-(5-(difluoromethyl)-1,3,4-oxadiazol-2-yl)imidazo[1,2-a]pyridin-2-yl)methyl)(3-fluorophenyl)carbamoyl)piperidine-1-carboxylate], on human recombinant HDAC1, the 50% inhibitory concentration (IC50) was > 50000 nM. For the same molecule, at human recombinant HDAC6, the “HDAC6 Selectivity (fold)” value is on record as 218 fold and the 50% inhibitory concentration (IC50) amounted to 229 nM.

For the molecule `CCC(=O)N1CCC(C(=O)N(Cc2cn3ccc(-c4nnc(C(F)F)o4)cc3n2)c2ccccc2)CC1` [Compound 4123, N-((7-(5-(difluoromethyl)-1,3,4-oxadiazol-2-yl)imidazo[1,2-a]pyridin-2-yl)methyl)-N-phenyl-1-propionylpiperidine-4-carboxamide], the IC50 at human recombinant HDAC1 was > 50000 nM; at human recombinant HDAC6, 307 nM. The “HDAC6 Selectivity (fold)” value at human recombinant HDAC6 is given as 163 fold.

Consider `CCC(=O)N1CC(C(=O)N(Cc2cn3ccc(-c4nnc(C(F)F)o4)cc3n2)c2cccc(F)c2)C1` [Compound 4198], for which the IC50 at human recombinant HDAC1 is > 50000 nM. Further, at human recombinant HDAC6, the “HDAC6 Selectivity (fold)” value came to 271 fold and the IC50 is 185 nM.

`O=C(CO)N1CC(C(=O)N(Cc2cn3ccc(-c4nnc(C(F)F)o4)cc3n2)c2cccc(F)c2)C1` [Compound 4199, N-((7-(5-(difluoromethyl)-1,3,4-oxadiazol-2-yl)imidazo[1,2-a]pyridin-2-yl)methyl)-N-(3-fluorophenyl)-1-(2-hydroxyacetyl) azetidine-3-carboxamide]: the 50% inhibitory concentration (IC50) on human recombinant HDAC1 is > 50000 nM. At human recombinant HDAC6, the “HDAC6 Selectivity (fold)” value is recorded as 200 fold and the IC50 was 250 nM.

On to `O=C(C1CCN(C2CCC2)CC1)N(Cc1cn2ccc(-c3nnc(C(F)F)o3)cc2n1)c1cccc(F)c1` [Compound 4141, 1-cyclobutyl-N-((7-(5-(difluoromethyl)-1,3,4-oxadiazol-2-yl)imidazo[1,2-a]pyridin-2-yl)methyl)-N-(3-fluorophenyl)piperidine-4-carboxamide], for which, on human recombinant HDAC1, the IC50 is > 50000 nM. For the same molecule, at human recombinant HDAC6, the “HDAC6 Selectivity (fold)” value was determined as 204 fold and the IC50 was 245 nM.

Turning to `O=C(C1COC1)N1CC(C(=O)N(Cc2cn3ccc(-c4nnc(C(F)F)o4)cc3n2)c2cccc(F)c2)C1` [Compound 4201, N-((7-(5-(difluoromethyl)-1,3,4-oxadiazol-2-yl)imidazo[1,2-a]pyridin-2-yl)methyl)-N-(3-fluorophenyl)-1-(oxetane-3-carbonyl) azetidine-3-carboxamide], the IC50 at human recombinant HDAC1 was > 50000 nM; at human recombinant HDAC6, 283 nM. Further, the “HDAC6 Selectivity (fold)” value on human recombinant HDAC6 turned out to be 177 fold.

As for `CCN1CCN(C(=O)N(Cc2cn3ccc(-c4nnc(C(F)F)o4)cc3n2)c2ccccc2)CC1` [Compound 4033, N-((7-(5-(difluoromethyl)-1,3,4-oxadiazol-2-yl)imidazo[1,2-a]pyridin-2-yl)methyl)-4-ethyl-N-phenylpiperazine-1-carboxamide], the IC50 at human recombinant HDAC1 is > 50000 nM. Also, on human recombinant HDAC6, the “HDAC6 Selectivity (fold)” value worked out at 538 fold and the IC50 was 93 nM.
